Experimental data as given in paper PMC2916045 (Journal of the American Chemical Society, 2010).
“Also recorded” adds a separate entry of the source.

Assays:
α-tubulin acetylation = conditions: at 5 µM; ref 29 (Parmigiani et al.); cited from earlier work
[1] = system: α-tubulin hyperacetylation, corresponding to HDAC6 inhibition; experiment: α-tubulin hyperacetylation in cells; conditions: for α-tubulin hyperacetylation versus histone hyperacetylation: at 2.5 µM
[2] = system: primary cortical neuron cultures; experiment: HCA oxidative stress neuroprotection assay
[3] = system: primary cortical neuron cultures; experiment: Neuronal toxicity of compound alone; type: cell-based, Sprague-Dawley rats; conditions: all concentrations tested, without HCA, 24 h, MTT
[4] = system: histone hyperacetylation, corresponds to class I HDAC inhibition; experiment: histone hyperacetylation in cells; conditions: at 10 µM

SMILES	α-tubulin acetylation (α-tubulin acetylation)	α-tubulin hyperacetylation versus histone hyperacetylation [1]	neuroprotection in HCA-induced neurodegeneration assay ([2]; at 0.5 µM, HCA 5 mM, 24 h, MTT)	neurotoxicity in HCA-induced neurodegeneration assay ([2]; at concentrations higher than 0.5 µM, protection declined)	neuronal toxicity when tested alone [3]	in vitro ADME properties (in vitro ADME properties)	histone hyperacetylation [4]	concentration at which protection against HCA-induced neuronal cell death starts ([2]; HCA 5 mM, 24 h, MTT)	protection against HCA-induced neuronal cell death (glutathione depletion-induced oxidative stress) ([2]; HCA 5 mM, 24 h, MTT, concentration series)	protection against HCA-induced neuronal cell death ([2]; at 10 µM, HCA 5 mM, 24 h, MTT)	levels of acetylated α-tubulin ([1]; primary cortical neuron cultures)
O=C(CCCCCCC(=O)Nc1ccc([C@H]2O[C@@H](CSc3nc(-c4ccccc4)c(-c4ccccc4)o3)C[C@@H](c3ccc(CO)cc3)O2)cc1)NO [Tubacin, reference compound]	induces α-tubulin acetylation	preferentially induced α-tubulin hyperacetylation									
CC(/C=C/C(=O)NO)=C\[C@@H](C)C(=O)c1ccc(N(C)C)cc1 [TSA, trichostatin A, reference compound]			moderately neuroprotective	dose-dependant neurotoxicity							
CN1CCc2c(c3ccccc3n2Cc2ccc(C(=O)NO)cc2)C1.O=C(O)C(F)(F)F [compound 6, Tubastatin A]		preferentially induced α-tubulin hyperacetylation			exhibited no toxicity; also recorded: no neuronal toxicity	favorable in vitro ADME properties	Slight induction of histone hyperacetylation	5 µM	dose-dependent protection	near complete protection	induce elevated levels of acetylated α-tubulin
